Laboratory results taken from patent publication US7696208B2, “Therapeutic agents useful for treating pain” (Purdue Pharma L.P., priority 2003, dated 2010).

What was measured:
human VR1 [1] = molecular target: T1, human VR1 (Homo sapiens, UniProt Q8NER1); test: Capsaicin-based assay (FLIPR calcium influx, inducible HEK293-EcR cells expressing human VR1); format: cell-based; conditions: activation by 50 μL of capsaicin (400 nM), HEK293-EcR cells induced with 5 μM PonA, Fluo-4, FLIPR, n=3
T1 construct: expressed in transfected cells; host or cells: HEK293-EcR cells, expression induced with ponasterone A
T1 sequence (Q8NER1 whole entry): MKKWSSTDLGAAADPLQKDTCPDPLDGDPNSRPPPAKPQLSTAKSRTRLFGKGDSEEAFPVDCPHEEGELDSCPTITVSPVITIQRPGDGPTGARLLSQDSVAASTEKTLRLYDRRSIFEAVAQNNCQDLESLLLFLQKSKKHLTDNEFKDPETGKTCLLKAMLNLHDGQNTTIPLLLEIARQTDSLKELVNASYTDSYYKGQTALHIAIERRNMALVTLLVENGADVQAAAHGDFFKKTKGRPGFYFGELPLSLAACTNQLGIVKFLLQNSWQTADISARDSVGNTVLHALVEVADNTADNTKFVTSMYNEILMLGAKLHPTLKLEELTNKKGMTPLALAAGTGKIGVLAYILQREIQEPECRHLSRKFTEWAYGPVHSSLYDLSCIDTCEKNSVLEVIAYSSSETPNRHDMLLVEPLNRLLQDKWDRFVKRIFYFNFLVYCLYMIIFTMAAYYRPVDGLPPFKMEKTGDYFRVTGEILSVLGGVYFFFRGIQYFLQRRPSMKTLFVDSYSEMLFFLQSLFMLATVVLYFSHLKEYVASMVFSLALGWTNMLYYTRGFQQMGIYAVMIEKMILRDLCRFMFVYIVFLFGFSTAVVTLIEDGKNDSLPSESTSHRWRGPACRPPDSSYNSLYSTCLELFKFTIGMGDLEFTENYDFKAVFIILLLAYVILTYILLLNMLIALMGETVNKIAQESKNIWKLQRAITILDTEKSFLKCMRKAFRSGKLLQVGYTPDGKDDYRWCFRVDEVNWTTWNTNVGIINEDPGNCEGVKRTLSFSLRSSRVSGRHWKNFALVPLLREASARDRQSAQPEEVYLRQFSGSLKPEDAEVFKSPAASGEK
Protocol: (§1) Human VR1 Cloning: Human spinal cord RNA (commercially available from Clontech, Palo Alto, Calif.) was used. Reverse transcription was conducted on 1.0 μg total RNA using Thermoscript Reverse Transcriptase (commercially available from Invitrogen, Carlsbad, Calif.) and oligo dT primers as detailed in its product description. Reverse transcription reactions were incubated at 55° C. for 1 h, heat-inactivated at 85° C. for 5 min, and RNase H-treated at 37° C. for 20 min.
(§2) Human VR1 cDNA sequence was obtained by comparison of the human genomic sequence, prior to annotation, to the published rat sequence. Intron sequences were removed and flanking exonic sequences were joined to generate the hypothetical human cDNA. Primers flanking the coding region of human VR1 were designed as follows: forward primer, […]; and reverse primer, […]. […]
(§3) Generation of Inducible Cell Lines: Unless noted otherwise, cell culture reagents were purchased from Life Technologies of Rockville, Md. […] On the day of assay, cells were loaded with Fluo-4 (a calcium-sensitive dye that is commercially available from Molecular Probes, Eugene, Oreg.) and CAP-mediated calcium influx was measured using a FLIPR as described below. […]

human VR1 [2] = molecular target: T1, human VR1; test: pH-based assay (FLIPR calcium influx, inducible HEK293-EcR cells expressing human VR1); format: cell-based; conditions: agonist buffer giving pH 5.5, HEK293-EcR cells induced with 5 μM PonA, Fluo-4, FLIPR, n=5
Protocol: as §1, §2, §3

IC50 (human VR1 [1]): 382 ± 64.2 nM
IC50 (human VR1 [2]): 808 ± 254 nM
Structure (SMILES): O=C(NCCc1ccccc1)N1CCN(c2ncccc2C(F)(F)F)CC1 [Compound A19]
